{
  "source": "paper PMC8175851",
  "about": "“Effects of Genetic Polymorphism in CYP2D6, CYP2C19, and the Organic Cation Transporter OCT1 on Amitriptyline Pharmacokinetics in Healthy Volunteers and Depressive Disorder Patients” (Frontiers in Pharmacology, 2021)",
  "key": {"[1]": {"test": "Adverse effects of amitriptyline in healthy volunteers (visual analogue scales, pupillometry)", "type": "in vivo, human", "experimental": "After overnight fasting, a single dose of 25 mg […] dura GmbH, Darmstadt, Germany) was orally administered to each subject. […] For the study in healthy volunteers, the primary endpoints were the AUCs of plasma AT and NT concentrations. Secondary endpoints were the other pharmacokinetic parameters of AT and NT, as well as heart rate, blood pressure, pupil size effects, and possible adverse events (headache, fatigue, visual or hearing impairments, restlessness, nausea, dizziness, dry mouth, tremor, as well as sensations of hypothermia and heart palpitations determined using a visual analogue scale test). Pharmacokinetic parameters were calculated by non-compartmental analysis using Phoenix 64 WinNonlin version 6.3 (Certara Inc., Princeton, NJ, United States). AUCinf of AT was calculated from the time of dosing using the linear/log trapezoidal rule and extrapolated to infinity based on the last predicted concentration and using the terminal elimination rate constant (lambda z). AUC of NT was calculated from the time of dosing until the last measurement at 48 h using the linear/log trapezoidal rule, as a decline in NT concentrations was not observed in some subjects and extrapolation to infinity thus not possible."}, "[2]": {"set-up": "method as in Hardman et al., 2001", "details": "ref Hardman et al., 2001; cited from earlier work"}, "[3]": {"details": "no reference given, cited from earlier work"}, "[4]": {"set-up": "method as in Rudorfer and Potter, 1999", "details": "ref Rudorfer and Potter, 1999; cited from earlier work"}, "[5]": {"system": "OCT1", "test": "Plasma acylcarnitine concentrations as endogenous biomarkers for OCT1 activity in healthy volunteers", "type": "in vivo, human", "quoted_text": "The peripheral venous blood samples of the healthy volunteers were treated with ethylenediaminetetraacetic acid (EDTA) for anticoagulation, centrifuged within 30 min after withdrawal (3,100 × g, 10 min, room temperature), and the plasma was stored at −20°C. For determining the plasma concentrations of AT, NT, IBC, 2-methylbutyrylcarnitine, and propionylcarnitine, plasma samples were mixed with twice the volume precipitation reagent of 10% (v/v) methanol and 90% (v/v) acetonitrile that included the corresponding deuterated internal standards AT-d6 (Biozol Diagnostica GmbH, Eching, Germany), NT-d3, IBC-d6, 2-methylbutyrylcarnitine-d9, and propionylcarnitine-d3 and d9 (all Santa Cruz Biotechnology, Heidelberg, Germany) and shaken for 15 min. After centrifugation (13,000 rpm, 15 min, room temperature), two-thirds of the supernatant were transferred to a new reaction tube and evaporated at 40°C under nitrogen flow. The residue was reconstituted under shaking in 0.1% methanoic acid and briefly centrifuged before quantification using a Nexera UHPLC system (Shimadzu, Kyoto, Japan) coupled to an API 4000 tandem mass spectrometer (AB Sciex, Darmstadt, Germany). Separation was done using a Brownlee SPP RP-Amide column (4.6 × 100 mm inner dimensions, 2.7 µm particle size; PerkinElmer, Rodgau, Germany) with a Phenomenex C18 pre-column (4 × 2 mm, Phenomenex, Aschaffenburg, Germany). For AT and NT, the mobile phase consisted of 0.1% (v/v) methanoic acid, 5.3% (v/v) methanol, and 31.7% (v/v) acetonitrile in water. For the carnitine derivatives, it consisted of 0.1% (v/v) methanoic acid, 0.43% (v/v) methanol, and 2.57% (v/v) acetonitrile in water. The lower limit of quantification was 0.5 ng/ml for AT and 0.1 ng/ml for NT. […]\nIn order to investigate the proposed suitability of IBC as a human in vivo biomarker for OCT1 activity ([Luo et al., 2020]), plasma concentrations of IBC as well as of 2-methylbutyrylcarnitine and propionylcarnitine were determined in a subgroup of 18 volunteers who participated in the study on AT pharmacokinetics. […]"}},
  "data": [
    {"smiles": "CN(C)CCC=C1c2ccccc2CCc2ccccc21", "note": "[Amitriptyline, amitriptyline]", "values": [
      {"measurement": "serious adverse events", "setting": "[1]; healthy volunteers, single oral 25 mg AT, entire study", "result": "no serious adverse events occurred"},
      {"measurement": "tolerability", "setting": "[1]; healthy volunteers, single oral 25 mg AT, no placebo control", "result": "generally well-tolerated"},
      {"measurement": "time- and concentration-related adverse effects (dry mouth, visual or hearing impairment, restlessness, headache, nausea, dizziness, sensation of cold) and anticholinergic effects by pupillometry", "setting": "[1]; visual analogue scales and pupillometry, 25 mg AT dose", "result": "not observed"},
      {"measurement": "time of peak fatigue symptoms after administration", "setting": "[1]; visual analogue scales, healthy volunteers, 25 mg AT, no placebo control", "result": 3, "unit": "h"},
      {"measurement": "plasma protein binding", "setting": "[2]", "result": 95, "unit": "%"},
      {"measurement": "positively charged fraction", "setting": "[3]; at physiological pH", "result": "approximately 99%"},
      {"measurement": "logD7.4", "setting": "[3]; pH 7.4", "result": 3},
      {"measurement": "excreted unchanged in urine", "setting": "[4]", "result": "less than 5%"},
      {"measurement": "plasma IBC concentration relative to baseline IBC concentration", "setting": "[5]; 2 h after 25 mg AT administration", "result": 72, "unit": "%"},
      {"measurement": "plasma IBC concentration relative to baseline IBC concentration", "setting": "[5]; 4 h after 25 mg AT administration", "result": 67, "unit": "%"},
      {"measurement": "decrease in IBC plasma concentration observed in vivo", "setting": "[5]; after 25 mg AT", "result": 33, "unit": "%"}
    ]}
  ]
}
